Test results: PubChem BioAssay AID330 (DTP/NCI, 2004)
Values joined by “and” are separate entries in the source; they are usually repeats but may differ in a detail not shown here. Identical values can stand only once. Inconclusive results and toxic doses are left out.

System: P388 leukemia ip, CD2F1 mice, survival T/C
Experiment: NCI In Vivo Anticancer Drug Screen. Data for tumor model P388 Leukemia (intraperitoneal) in CD2F1 (CDF1) mice
Conditions: endpoint: median survival time, higher = longer survival
Method in brief: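 Mice carrying the transplanted tumor received test compound or vehicle. Survival was recorded in each group, and the value is the treated-group measurement divided by that of the vehicle-treated control group.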

[1] = dose: 100.0 mg/kg/injection, schedule: Q04DX003 (ip), vehicle: saline with Tween-80
[2] = dose: 200.0 mg/kg/injection, schedule: Q04DX003 (ip), vehicle: saline with Tween-80
[3] = dose: 50.0 mg/kg/injection, schedule: Q01DX005 (ip), vehicle: saline with Tween-80
[4] = dose: 100.0 mg/kg/injection, schedule: Q01DX005 (ip), vehicle: saline with Tween-80
[5] = dose: 200.0 mg/kg/injection, schedule: Q01DX005 (ip), vehicle: saline with Tween-80
[6] = dose: 100.0 mg/kg/injection, schedule: Q04DX003 (ip), vehicle: saline
[7] = dose: 200.0 mg/kg/injection, schedule: Q04DX003 (ip), vehicle: saline
[8] = dose: 400.0 mg/kg/injection, schedule: Q04DX003 (ip), vehicle: saline
[9] = dose: 12.5 mg/kg/injection, schedule: Q01DX009 (ip), vehicle: saline with Tween-80
[10] = dose: 25.0 mg/kg/injection, schedule: Q01DX009 (ip), vehicle: saline with Tween-80
[11] = dose: 100.0 mg/kg/injection, schedule: Q01DX009 (ip), vehicle: saline with Tween-80
[12] = dose: 100.0 mg/kg/injection, schedule: Q04DX002 (ip), vehicle: saline with Tween-80
[13] = dose: 200.0 mg/kg/injection, schedule: Q04DX002 (ip), vehicle: saline with Tween-80
[14] = dose: 400.0 mg/kg/injection, schedule: Q04DX002 (ip), vehicle: saline with Tween-80
[15] = dose: 50.0 mg/kg/injection, schedule: Q01DX009 (ip), vehicle: saline with Tween-80
[16] = dose: 200.0 mg/kg/injection, schedule: Q01DX009 (ip), vehicle: saline with Tween-80
[17] = dose: 60.0 mg/kg/injection, schedule: Q01DX005 (ip), vehicle: saline
[18] = dose: 60.0 mg/kg/injection, schedule: Q01DX005 (ip), vehicle: saline with Tween-80
[19] = dose: 120.0 mg/kg/injection, schedule: Q01DX005 (ip), vehicle: saline with Tween-80
[20] = dose: 240.0 mg/kg/injection, schedule: Q01DX005 (ip), vehicle: saline with Tween-80
[21] = dose: 15.0 mg/kg/injection, schedule: Q01DX005 (ip), vehicle: saline with Tween-80
[22] = dose: 30.0 mg/kg/injection, schedule: Q01DX005 (ip), vehicle: saline with Tween-80

Structure (SMILES): COc1ccc2c(c1)CC[C@@H]1[C@@H]2CC[C@]2(C)/C(=N\O)CC[C@@H]12
- T/C [1]: 90 % of control
- T/C [2]: 90 % of control
- T/C (dose: 400.0 mg/kg/injection, schedule: Q04DX003 (ip), vehicle: saline with Tween-80): 100 % of control

Structure (SMILES): CCCCCCC(O)C/C=C\CCCCCCCC(=O)O (configuration not stated)
- T/C (dose: 50.0 mg/kg/injection, schedule: Q01DX009 (ip), vehicle: Klucel (hydroxypropylcellulose) (HPC)): 107 % of control
- T/C (dose: 100.0 mg/kg/injection, schedule: Q01DX009 (ip), vehicle: Klucel (hydroxypropylcellulose) (HPC)): 107 % of control
- T/C (dose: 200.0 mg/kg/injection, schedule: Q01DX009 (ip), vehicle: Klucel (hydroxypropylcellulose) (HPC)): 102 % of control
- T/C (dose: 400.0 mg/kg/injection, schedule: Q01DX009 (ip), vehicle: Klucel (hydroxypropylcellulose) (HPC)): 95 % of control

Structure (SMILES): O=C(c1ccc(O)cc1)c1ccc(O)cc1O
- T/C (dose: 66.0 mg/kg/injection, schedule: Q01DX001 (ip), vehicle: saline): 100 % of control
- T/C (dose: 150.0 mg/kg/injection, schedule: Q01DX001 (ip), vehicle: saline): 88 % of control
- T/C (dose: 200.0 mg/kg/injection, schedule: Q01DX001 (ip), vehicle: saline): 100 % of control
- T/C (dose: 400.0 mg/kg/injection, schedule: Q01DX001 (ip), vehicle: saline): 100 % of control

Structure (SMILES): C[Si](C)(C)C#CC(OS(=O)(=O)C(F)(F)F)=C(c1ccccc1)c1ccccc1
- T/C [3]: 98 % of control
- T/C [4]: 99 % of control
- T/C [5]: 92 % of control

Structure (SMILES): O=C1C2CCCC1C(c1ccccc1Cl)NC2c1ccccc1Cl (configuration not stated)
- T/C [6]: 89 % of control
- T/C [7]: 96 % of control
- T/C [8]: 94 % of control

Structure (SMILES): CCOC(=O)C(Cc1ccc(O)cc1)NCc1ccc(N(CCCl)CCCl)cc1 (configuration not stated)
- T/C [9]: 109 % of control
- T/C [10]: 113 % of control
- T/C [11]: 160 % of control

Structure (SMILES): C=C1C(=O)OC2C1CCC(C)=C1CCC(C)(O)C12 (configuration not stated)
- T/C (dose: 5.0 mg/kg/injection, schedule: Q01DX009 (ip), vehicle: saline with Tween-80): 97 % of control
- T/C (dose: 10.0 mg/kg/injection, schedule: Q01DX009 (ip), vehicle: saline with Tween-80): 105 % of control
- T/C (dose: 20.0 mg/kg/injection, schedule: Q01DX009 (ip), vehicle: saline with Tween-80): 107 % of control
- T/C (dose: 40.0 mg/kg/injection, schedule: Q01DX009 (ip), vehicle: saline with Tween-80): 107 % of control

Structure (SMILES): O=C1CCSC(=O)N1c1ccc(F)cc1
- T/C [12]: 100 % of control
- T/C [13]: 105 % of control
- T/C [14]: 99 % of control

Structure (SMILES): C=C1C2CCC3(C)C(c4ccoc4)OC(=O)CC13OC1CC(=O)C(C)(C)C(CC(=O)OC)C12C (configuration not stated)
- T/C [10]: 99 % of control
- T/C [15]: 99 % of control
- T/C [11]: 99 % of control
- T/C [16]: 98 % of control

Structure (SMILES): CCCN(CCC)CCCCCO
- T/C (dose: 50.0 mg/kg/injection, schedule: Q04DX003 (ip), vehicle: saline with Tween-80): 104 % of control
- T/C [1]: 100 % of control
- T/C [2]: 100 % of control

Structure (SMILES): CCCCCCCCNC1c2ccccc2CCC1O (configuration not stated)
- T/C (dose: 25.0 mg/kg/injection, schedule: Q01DX005 (ip), vehicle: Klucel (hydroxypropylcellulose) (HPC)): 97 % of control
- T/C (dose: 50.0 mg/kg/injection, schedule: Q01DX005 (ip), vehicle: Klucel (hydroxypropylcellulose) (HPC)): 94 % of control
- T/C (dose: 100.0 mg/kg/injection, schedule: Q01DX005 (ip), vehicle: Klucel (hydroxypropylcellulose) (HPC)): 97 % of control

Structure (SMILES): Cc1cc(Nc2nnc(-c3cccnc3Oc3ccccc3)s2)ccc1Br
- T/C [9]: 88 % of control
- T/C [10]: 92 % of control
- T/C [15]: 105 % of control and 91 % of control
- T/C [11]: 94 % of control
- T/C [16]: 103 % of control

Structure (SMILES): COc1cc(-c2cnc3c(n2)c(=O)[nH]c(=O)n3C)ccc1O
- T/C (dose: 100.0 mg/kg/injection, schedule: Q04DX002 (ip), vehicle: saline): 104 % of control
- T/C (dose: 200.0 mg/kg/injection, schedule: Q04DX002 (ip), vehicle: saline): 103 % of control
- T/C (dose: 400.0 mg/kg/injection, schedule: Q04DX002 (ip), vehicle: saline): 95 % of control

Structure (SMILES): CCN(CC)CCCCCCCCOC(=O)c1cc(OC)c(OC)c(OC)c1
- T/C (dose: 12.5 mg/kg/injection, schedule: Q01DX005 (ip), vehicle: saline): 101 % of control
- T/C (dose: 25.0 mg/kg/injection, schedule: Q01DX005 (ip), vehicle: saline): 97 % of control
- T/C (dose: 50.0 mg/kg/injection, schedule: Q01DX005 (ip), vehicle: saline): 96 % of control
- T/C [17]: 99 % of control

Structure (SMILES): O=C(c1ccccc1)N1c2ccccc2N(C(=O)c2ccccc2)C1c1nc2ccccc2n1C(=O)c1ccccc1
- T/C [15]: 109 % of control
- T/C [11]: 100 % of control
- T/C [16]: 102 % of control

Structure (SMILES): C=CS(=O)(=NN1C(=O)c2ccccc2C1=O)c1ccc(C)cc1 (configuration not stated)
- T/C (dose: 6.25 mg/kg/injection, schedule: Q01DX001 (ip), vehicle: Klucel (hydroxypropylcellulose) (HPC)): 95 % of control
- T/C (dose: 12.5 mg/kg/injection, schedule: Q01DX001 (ip), vehicle: Klucel (hydroxypropylcellulose) (HPC)): 98 % of control
- T/C (dose: 25.0 mg/kg/injection, schedule: Q01DX001 (ip), vehicle: Klucel (hydroxypropylcellulose) (HPC)): 104 % of control and 95 % of control
- T/C (dose: 50.0 mg/kg/injection, schedule: Q01DX001 (ip), vehicle: Klucel (hydroxypropylcellulose) (HPC)): 101 % of control and 104 % of control
- T/C (dose: 100.0 mg/kg/injection, schedule: Q01DX001 (ip), vehicle: Klucel (hydroxypropylcellulose) (HPC)): 106 % of control and 113 % of control

Structure (SMILES): O/N=C(/Cc1nc2cc(Cl)c(Cl)cc2nc1C/C(=N/O)c1ccc(Cl)cc1)c1ccc(Cl)cc1
- T/C [18]: 99 % of control
- T/C [19]: 99 % of control
- T/C [20]: 107 % of control

Structure (SMILES): ON(C=Nc1ccccc1)c1ccccc1
- T/C (dose: 50.0 mg/kg/injection, schedule: Q01DX009 (ip), vehicle: saline): 101 % of control
- T/C (dose: 100.0 mg/kg/injection, schedule: Q01DX009 (ip), vehicle: saline): 101 % of control
- T/C (dose: 200.0 mg/kg/injection, schedule: Q01DX009 (ip), vehicle: saline): 97 % of control

Structure (SMILES): O=c1cc(Br)[nH]c(=O)o1
- T/C [10]: 91 % of control
- T/C [15]: 97 % of control
- T/C [11]: 92 % of control

Structure (SMILES): Cc1ccc(S(=O)(=O)N/N=C2\CC/C(=N\NS(=O)(=O)c3ccc(C)cc3)[C@@H]3CC=CC[C@H]23)cc1
- T/C [3]: 92 % of control
- T/C [4]: 92 % of control
- T/C [5]: 89 % of control

Structure (SMILES): CCN(CC)C(=O)NCCCCCCNC(=O)N(CC)CC
- T/C [21]: 103 % of control
- T/C [22]: 98 % of control and 104 % of control
- T/C [18]: 98 % of control and 100 % of control and 94 % of control
- T/C [19]: 87 % of control

Structure (SMILES): CCOC(=O)c1cc(/C=C/c2cccc(Cl)c2)on1
- T/C [21]: 93 % of control
- T/C [22]: 100 % of control and 90 % of control
- T/C [18]: 90 % of control
- T/C [19]: 93 % of control
- T/C [20]: 95 % of control

Structure (SMILES): Brc1nc(-[n+]2ccccc2)[n-]c1Br
- T/C [6]: 101 % of control
- T/C [7]: 99 % of control
- T/C [8]: 100 % of control

Structure (SMILES): CC(=O)Nc1cc(N(CCOS(C)(=O)=O)CCOS(C)(=O)=O)ccc1N=O
- T/C (dose: 0.08 mg/kg/injection, schedule: Q01DX009 (ip), vehicle: saline): 154 % of control
- T/C (dose: 1.25 mg/kg/injection, schedule: Q04DX003 (ip), vehicle: saline sonified): 168 % of control
- T/C (dose: 2.5 mg/kg/injection, schedule: Q04DX003 (ip), vehicle: saline sonified): 177 % of control
- T/C (dose: 75.0 micrograms/kg/injection, schedule: Q01DX009 (ip), vehicle: saline): 159 % of control
- T/C (dose: 150.0 micrograms/kg/injection, schedule: Q01DX009 (ip), vehicle: saline): 159 % of control

Structure (SMILES): COc1ccc(C2ON=C(c3cc(C)cc(Br)c3O)C2[N+](=O)[O-])cc1 (configuration not stated)
- T/C [12]: 90 % of control
- T/C [13]: 94 % of control
- T/C [14]: 94 % of control

Structure (SMILES): COc1ccc2oc(-c3ccc(Cl)cc3)c(N3CCN(C)CC3)c2c1
- T/C [17]: 102 % of control and 93 % of control and 97 % of control
- T/C (dose: 120.0 mg/kg/injection, schedule: Q01DX005 (ip), vehicle: saline): 102 % of control and 103 % of control and 105 % of control
- T/C (dose: 240.0 mg/kg/injection, schedule: Q01DX005 (ip), vehicle: saline): 122 % of control and 96 % of control
